In patent publication US20140024653A1, “COMPOSITIONS AND METHODS FOR TREATING CANCER USING PI3K INHIBITOR AND MEK INHIBITOR” (priority 2011, published 2014):
Entries after “also recorded” stand apart in the source; their conditions may differ. Like-named read-outs stand apart in the source and are kept apart here.

Experiments:
A673 = assay: SRB cell growth assay, 72 h; assay type: cell-based, human; settings: single agent; for activity (cell growth inhibition): up to 50 μM
[1] = system: human primary colon tumors CR-LRB-013P; assay: antitumor activity against subcutaneous CR-LRB-013P xenografts; assay type: in vivo; settings: for tolerability: as single agents or used in combination
Method: The human primary colon carcinoma CR-LRB-013P tumor model was established by implanting (SC) small tumor fragments and was maintained in SCID female mice using serial passages.
(§1) Treatments were administered on measurable tumors. […] Mice were checked daily, and adverse clinical reactions noted.
(§2) Animal body weights included the tumor weight.
(§3) The primary efficacy end points are ΔT/ΔC, percent median regression, partial and complete regressions (PR and CR). Statistical analyses were performed on SAS system release 8.2 for SUN4 via Everstat V5 software and SAS 9.2 software. A probability less than 5% (p<0.05) was considered as significant.

CASKI = assay: SRB cell growth assay, 72 h; assay type: cell-based, human; settings: single agent
PANC1 = assay: SRB cell growth assay, 72 h; assay type: cell-based, human; settings: single agent
COLO678 = assay: SRB cell growth assay, 72 h; assay type: cell-based; settings: Homo sapiens
Method: (§4) Cell growth and treatment were performed in 96-well microtitre plates CELLSTAR® (Greiner Bio-One, Germany). Cells harvested from exponential phase cultures by trypsinization were plated in 150 μl of media at optimal seeding densities. The optimal seeding densities for each cell line were determined to ensure exponential growth for the duration of the experiment. All cells growing without anticancer agents were sub-confluent by the end of the treatment as determined by visual inspection.
(§5) 150 μl of cells, after a 24-hour pre-growth period, were treated by mixing with 50 μl of the compound containing media (resulting in a final DMSO concentration of 0.1%). The cells were allowed to grow at 37° C. for 72 hours. In addition, all experiments contained a few plates with cells that were processed for measurement immediately after the 24 hours recovery period. These plates contained information about the cell number that existed before treatment, at time zero, and served to calculate the cytotoxicity.
(§6) After treatment, cells were precipitated by addition of 10% TCA. Prior to fixation, the media was aspirated as described. After an hour of incubation at 4° C., the plates were washed two times with 400 μl of deionized water. Cells were then stained with 100 μl of a 0.08% wt/v SRB. The plates were allowed to sit for at least 30 min. and washed six times with 1% acetic acid to remove unbound stain. The plates were left to dry at room temperature and bound SRB was solubilized with 100 μl of 10 mM Tris base. Measurement of optical density was performed at 560 nm on a Victor 2 plate reader (Perkin Elmer, Germany). The SRB values for A375 and H460 cell lines were near to saturation (2.5 OD units) due to the high protein content of these cells, but not cell confluence. The measurements for these cells were performed at 520 nm instead of 560 nm.
(§7) Using these measurements, cellular responses can be calculated for incomplete inhibition of cell growth (GI), complete inhibition of cell growth (T GI) and net loss of cells (LC) due to compound activity. […] This is the drug concentration causing a 50% reduction compared to the net protein increase in control cells during the drug incubation period. In other words, GI50 is IC50 corrected for time zero. Similar to IC90, calculated GI90 values are also reported for all compounds tested. TGI was calculated from Ti=Tz. […] It was calculated as 100×[(Ti−Tz)/Tz]=−50. However, due to 72 hours treatment, low cell seeding density was required and LC50 could rarely be achieved.

[2] = system: human colon carcinoma HCT 116
Method: Mice were over 18 g at start of treatment after an acclimatization time of at least 5 days. […] The mice were housed on a 12 hours light/dark cycle.
Human colon carcinoma HCT 116 cells were purchased at American Type Culture Collection [(ATCC), Rockville, Md., USA). The HCT 116 cells were cultured in Dulbecco's modified Eagle's medium (DMEM) (Invitrogen).
The animals required to begin a given experiment were pooled and implanted monolaterally on day 0. Treatments were administered on measurable tumors. The solid tumors were allowed to grow to the desired volume range (animals with tumors not in the desired range were excluded). The mice were then pooled and unselectively distributed to the various treatment and control groups. […] The dosages are expressed in mg/kg, based on the body weight at start of therapy. Mice were checked daily, and adverse clinical reactions noted. Each group of mice was weighed as a whole daily until the weight nadir was reached. Then, groups were weighed once to thrice weekly until the end of the experiment. Tumors were measured with a caliper 2 to 3 times weekly until final sacrifice for sampling time, tumor reached 2000 mm^3 or until the animal died (whichever comes first). Solid tumor volumes were estimated from two-dimensional tumor measurements and calculated according to the following equation:
Changes in tumor volume for each treated (T) and control (C) group were calculated for each tumor by subtracting the tumor volume on the day of first treatment (staging day) from the tumor volume on the specified observation day. The median ΔT is calculated for the treated group, and the median ΔC is calculated for the control group. Then the ratio ΔT/ΔC is calculated and expressed as a percentage. The dose is considered as therapeutically active when ΔT/ΔC is lower than 40% and very active when ΔT/ΔC is lower than 10%.
The percent of tumor regression is defined as the % of tumor volume decrease in the treated group at a specified observation day compared to its volume on the first day of treatment. At a specific time point and for each animal, % regression is calculated. The median % regression is then calculated for the group using the following equation:
Partial regression: Regressions are defined as partial if the tumor volume decreases to 50% of the tumor volume at the start of treatment.
Complete regression: The CR is achieved when tumor volume=0 mm^3 (CR is considered when tumor volume cannot be recorded).

[3] = system: resting Peripheral Blood Mononuclear Cells, PBMC; assay: SRB cell growth assay, 72 h, non-proliferating cells; assay type: cell-based
Method: Cell lines were selected to represent 17 different indications with many different genetic variations and biochemical characteristics. In addition, the study included resting Peripheral Blood Mononuclear Cells, PBMC, as a model for non-proliferating cells.
as §4, with “inspection. […]” for “inspection.”
After treatment, cells were precipitated by addition of 10% TCA. […] Measurement of optical density was performed at 560 nm on a Victor 2 plate reader (Perkin Elmer, Germany). […]
Using these measurements, cellular responses can be calculated for incomplete inhibition of cell growth (GI), complete inhibition of cell growth (T GI) and net loss of cells (LC) due to compound activity. […] Similar to IC90, calculated GI90 values are also reported for all compounds tested. TGI was calculated from Ti=Tz. […] It was calculated as 100×[(Ti−Tz)/Tz]=−50. […]

DU145 = assay: SRB cell growth assay, 72 h; assay type: cell-based, human; settings: single agent
DLD1 = assay: SRB cell growth assay, 72 h; assay type: cell-based, human; settings: single agent
SKBR3 = assay: SRB cell growth assay, 72 h; assay type: cell-based, human
MDAMB468 = assay: SRB cell growth assay, 72 h; assay type: cell-based, human
Method: as §4, §5, §6, §7

HCT116 = assay: SRB cell growth assay, 72 h; assay type: cell-based, human
MCF7 = assay: SRB cell growth assay, 72 h; assay type: cell-based, human; settings: for GI50: Homo sapiens
A549 = assay: SRB cell growth assay, 72 h; assay type: cell-based, human; settings: for GI50: Homo sapiens
BT20 = assay: SRB cell growth assay, 72 h; assay type: cell-based, human; settings: single agent
[4] = system: human primary colon tumors CR-LRB-009C; assay: antitumor activity against subcutaneous CR-LRB-009C xenografts; assay type: in vivo; settings: for tolerability: as single agents or used in combination
Method: The human primary colon carcinoma CR-LRB-009C tumor model was established by implanting (SC) small tumor fragments and was maintained in SCID female mice using serial passages.
as §1, §2, §3

[5] = (1) 20 mg/kg PO daily days 33-50
[6] = study 1, (1) 5 mg/kg PO daily days 11-18
[7] = study 2, (1) 10 mg/kg PO daily days 11-18 (day 17: 20 mg/kg)
[8] = study 2, (1) 20 mg/kg PO daily days 11-18
[9] = study 3, (1) 10 mg/kg PO daily days 11-20
[10] = study 3, (1) 20 mg/kg PO daily days 11-20
[11] = study 4, (1) 10 mg/kg PO daily days 11-20
[12] = study 4, (1) 20 mg/kg PO daily days 11-20
[13] = (1) 20 mg/kg PO daily days 11-21
[14] = (2b) 20 mg/kg PO daily days 33-50
[15] = study 1, (2b) 30 mg/kg PO daily days 11-18
[16] = study 2, (2b) 20 mg/kg PO daily days 11-18
[17] = study 4, (2b) 20 mg/kg PO daily days 11-20
[18] = (2b) 20 mg/kg PO daily days 11-21

O=C(NC[C@H](O)CO)c1ccncc1Nc1ccc(I)cc1F [Compound (1), N—((S)-2,3-dihydroxypropyl)-3-(2-fluoro-4-iodo-phenylamino)isonicotinamide]
z-score MSC6369 (A673): 3.00
activity (cell growth inhibition) (A673): minimal activity; also recorded: non-sensitive
Average body weight change in % per mouse at nadir [1, 5]: −4.5 (50) %
Drug death [1, 5]: 0/7
Median ΔT/ΔC in % day 50 [1, 5]: 30%
Regressions Complete [1, 5]: 0/7
Regressions Partial [1, 5]: 0/7
tolerability [1]: tolerated, inducing some BWL but not reaching toxicity
z-score MSC6369 (CASKI): 1.55
z-score MSC6369 (PANC1): 3.00
activity (cell growth inhibition) (PANC1; up to 50 μM): minimal activity
IC50 (COLO678; COLO-678, most sensitive cell lines): 4.8 to 8 nM
Average body weight change in % per mouse at nadir [2, 6]: −3.4 (14) %
Drug death [2, 6]: 0/7
Regressions Complete [2, 6]: 0/7
Regressions Partial [2, 6]: 0/7
Median ΔT/ΔC in % day 18 ([2]; study 1, (1) 5 mg/kg PO daily days 11-18, 5 mg/kg): 70%
tolerability ([2]; study 1, as single agents or used in combination): well-tolerated, inducing minimal BWL
Average body weight change in % per mouse at nadir [2, 7]: −2.2 (18) %
Drug death [2, 7]: 0/7
Median ΔT/ΔC in % day 18 [2, 7]: 20%
Regressions Complete [2, 7]: 0/7
Regressions Partial [2, 7]: 0/7
Average body weight change in % per mouse at nadir [2, 8]: −1.1 (15) %
Drug death [2, 8]: 0/7
Median ΔT/ΔC in % day 18 [2, 8]: 22%
Regressions Complete [2, 8]: 0/7
Regressions Partial [2, 8]: 0/7
tolerability ([2]; study 2, as single agents): well-tolerated, inducing minimal BWL
Average body weight change in % per mouse at nadir [2, 9]: −4.9 (20) %
Drug death [2, 9]: 0/10
Regressions Complete [2, 9]: 0/10
Regressions Partial [2, 9]: 0/10
Median ΔT/ΔC in % day 20 ([2]; study 3, (1) 10 mg/kg PO daily days 11-20, 10 mg/kg): 43%
Average body weight change in % per mouse at nadir [2, 10]: −3.6 (19) %
Drug death [2, 10]: 0/10
Median ΔT/ΔC in % day 20 [2, 10]: 34%
Regressions Complete [2, 10]: 0/10
Regressions Partial [2, 10]: 0/10
tolerability ([2]; study 3, as single agents): well-tolerated, inducing minimal BWL
Average body weight change in % per mouse at nadir [2, 11]: −2.3 (13) %
Drug death [2, 11]: 0/10
Regressions Complete [2, 11]: 0/10
Regressions Partial [2, 11]: 0/10
Median ΔT/ΔC in % day 20 ([2]; study 4, (1) 10 mg/kg PO daily days 11-20, 10 mg/kg): 53%
Average body weight change in % per mouse at nadir [2, 12]: −4.1 (18) %
Drug death [2, 12]: 0/10
Regressions Complete [2, 12]: 0/10
Regressions Partial [2, 12]: 0/10
Median ΔT/ΔC in % day 20 ([2]; study 4, (1) 20 mg/kg PO daily days 11-20, 20 mg/kg): 41%
tolerability ([2]; study 4, as single agents): well-tolerated, inducing minimal BWL
activity in resting (arrested) PBMC [3]: no activity
z-score MSC6369 (DU145): 0.73
z-score MSC6369 (DLD1): 0.19
sensitivity (SKBR3; single agent): non-sensitive
z-score MSC6369 (SKBR3; single agent): 0.69
activity (cell growth inhibition) (MDAMB468; single agent, up to 50 μM): minimal activity
z-score MSC6369 (HCT116; single agent): −0.32
GI50 (MCF7): 150 nM
z-score MSC6369 (MCF7; single agent): −0.33
GI50 (A549): 300 nM
z-score MSC6369 (A549; single agent): −0.11
z-score MSC6369 (BT20): 0.02
Average body weight change in % per mouse at nadir [4, 13]: −7.7 (20) %
Drug death [4, 13]: 0/7
Regressions Complete [4, 13]: 0/7
Regressions Partial [4, 13]: 0/7
Median ΔT/ΔC in % day 21 ([4]; (1) 20 mg/kg PO daily days 11-21, 20 mg/kg): 53%
tolerability [4]: tolerated, inducing some BWL but not reaching toxicity

CCn1c(=O)c(-c2ccn[nH]2)cc2c(C)nc(N)nc21 [Compound (2b), 2-amino-8-ethyl-4-methyl-6-(1H-pyrazol-5-yl)pyrido[2,3-d]pyrimidin-7(8H)-one]
z-score MSC0765 (A673): 0.96
activity (cell growth inhibition) (A673): non-sensitive
Average body weight change in % per mouse at nadir [1, 14]: −5.2 (50) %
Drug death [1, 14]: 0/7
Regressions Complete [1, 14]: 0/7
Regressions Partial [1, 14]: 0/7
tolerability [1]: tolerated, inducing some BWL but not reaching toxicity
z-score MSC0765 (CASKI): −0.23
z-score MSC0765 (PANC1): 1.16
GI50 (COLO678; COLO-678, non-sensitive, z score >1.5): > 4 µM
Average body weight change in % per mouse at nadir [2, 15]: −6.7 (18) %
Drug death [2, 15]: 0/7
Median ΔT/ΔC in % day 18 [2, 15]: 77%
Regressions Complete [2, 15]: 0/7
Regressions Partial [2, 15]: 1/7
Average body weight change in % per mouse at nadir [2, 16]: −3.7 (15) %
Drug death [2, 16]: 0/7
Median ΔT/ΔC in % day 18 [2, 16]: 71%
Regressions Complete [2, 16]: 0/7
Regressions Partial [2, 16]: 0/7
tolerability ([2]; study 2, as single agents): well-tolerated, inducing minimal BWL
Average body weight change in % per mouse at nadir [2, 17]: −4.8 (20) %
Drug death [2, 17]: 0/10
Regressions Complete [2, 17]: 0/10
Regressions Partial [2, 17]: 0/10
tolerability ([2]; study 4, as single agents): well-tolerated, inducing minimal BWL
activity in resting (arrested) PBMC [3]: no activity
z-score MSC0765 (DU145): −0.05
z-score MSC0765 (DLD1): 0.81
GI50 (SKBR3; Homo sapiens, SK-BR-3, most sensitive, z-score <−1.5): < 500 nM
sensitivity (SKBR3; single agent): very sensitive
z-score MSC0765 (SKBR3; single agent): −2.18
GI50 (MDAMB468; Homo sapiens, MDA-MB-468, most sensitive, z-score <−1.5): < 500 nM
GI50 (HCT116; Homo sapiens, HCT-116, non-sensitive, z score >1.5): > 4 µM
z-score MSC0765 (HCT116; single agent): 1.90
GI50 (MCF7): 1600 nM
z-score MSC0765 (MCF7; single agent): 0.30
GI50 (A549): 1150 nM
z-score MSC0765 (A549; single agent): −0.20
z-score MSC0765 (BT20): 0.32
Average body weight change in % per mouse at nadir [4, 18]: −7.4 (19) %
Drug death [4, 18]: 0/7
Median ΔT/ΔC in % day 21 [4, 18]: 51%
Regressions Complete [4, 18]: 0/7
Regressions Partial [4, 18]: 0/7
tolerability [4]: tolerated, inducing some BWL but not reaching toxicity
